Where two headings read alike, the source gives them in different places.
How the values were obtained:
[1] = tested on: angiotensin II receptor; experiment: Adrenal Glomerulosa Test System: I125-angiotensin II binding to adrenal membranes; conditions: percent inhibition of I125 angiotensin binding at 10^-5 M of antagonist; rat adrenal membranes; 0.1 nM I125-angiotensin II
Protocol: The ability for compounds of Formula I to block angiotensin II receptor binding was determined using the adrenal glomerulosa assay.
Binding of I^125 -angiotensin II to adrenal membranes was routinely carried out in 96-well filtration plates. Adrenal membranes were prepared from the capsular portion (glomerulosal layer attached) of rat adrenal glands by differential centrifugation. Briefly, capsules were homogenized in a solution containing sucrose, 250 mM; MgCl2, 1 mM; and tris, 5 mM at pH 7.5 and 4° C. using a polytron at setting 5 for 20 seconds. The homogenate was stirred, gently, for 15 minutes at 4° C. and then centrifuged 10 minutes, at 1000×g, 4° C. The supernatant was centrifuged 30 minutes, at 30,000 ×g, 4° C. and the resulting pellet resuspended in 50 mM tris. Membrane preparations were stored in aliquots at -70° C. until used. Binding of I^125 -angiotensin II to adrenal membranes was performed at room temperature for 90 minutes in 96-well plates containing a hydrophilic polyvinylidene fluoride membrane (0.45 μm, millipore-GV multiscreen). Each 250 μl incubate contained the following (final concentration): tris, 50 mM; NaCl, 120 mM; MgCl2, 5 mM; dithiothrietol 1 mM; bovine serum albumin, 0.05%; I^125 -angiotensin II, 0.1 nM; and adrenal membrane protein, 8-15 μg. Antagonists were added in concentrations from 10 nM to 100 μM. Non-specific binding was measured in the presence of 0.1 μM Sar1, Ile8 angiotensin II. Binding was terminated by vacuum filtration. Receptor-ligand complex trapped on filters was washed 3 times with 300 μl ice-cold wash solution (tris, 50 mM; NaCl, 120 mM; MgCl2, 5 mM; dithiothrietol, 1 mM). Filter discs were dried, punched out and counted in a gamma counter at 52% efficiency. Specific binding represented 96% of total binding (approximately 150 fmol angiotensin II/mg protein). Data are expressed as the percent inhibition of I^125 angiotensin binding at 10^-5 M of antagonist.

[2] = biological target: T1, angiotensin-induced vasoconstriction (rabbit aorta) (Oryctolagus cuniculus, UniProt P34976); experiment: Rabbit Aorta Test System: antagonism of angiotensin II-induced contraction of aortic rings; type: cell-based, New Zealand white rabbits
T1 construct: the thoracic aortas were removed and cleaned of excess fat and connective tissue; from tissue; host or cells: thoracic aorta rings of New Zealand white rabbits
T1 sequence (P34976 1-359): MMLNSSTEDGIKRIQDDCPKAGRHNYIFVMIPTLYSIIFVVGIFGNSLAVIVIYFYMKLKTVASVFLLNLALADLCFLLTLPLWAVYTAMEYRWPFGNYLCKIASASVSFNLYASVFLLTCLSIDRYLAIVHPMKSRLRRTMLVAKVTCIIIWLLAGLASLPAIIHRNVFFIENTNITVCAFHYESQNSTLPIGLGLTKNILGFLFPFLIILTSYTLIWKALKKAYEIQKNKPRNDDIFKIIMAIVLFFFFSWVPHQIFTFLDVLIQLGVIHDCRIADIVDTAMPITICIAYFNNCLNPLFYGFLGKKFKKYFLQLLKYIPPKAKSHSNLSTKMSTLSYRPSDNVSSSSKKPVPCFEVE
Protocol: The ability to antagonize angiotensin-induced vasoconstriction was evaluated in the rabbit aorta test system.
New Zealand white rabbits (Hazelton, 2-3 kg) were sacrificed by cervical dislocation and the thoracic aortas were removed and cleaned of excess fat and connective tissue. Rings of tissue (3 mm wide) were mounted in 10 ml tissue baths between 2 L-shaped stainless steel hooks. The lower hook was attached to a stationary rod and the upper hook to a force displacement transducer (Grass model FT.03). The bath chambers were maintained at 37° C., aerated with 95% O2 /5% CO2, and contained physiological solution of the following composition (mM): NaCl, 117; glucose, 5.6; NaH2 PO4, 1.0; MgSO4, 0.7; KCl, 5.2; CaCl2, 1.8; NaHCO3, 26; and phentolamine HCl, 0.003.
Rings were equilibrated for 1 hour with 2 g of tension. During the equilibration period, the tissues were washed by overflow every 15 minutes. Rings were then exposed to 10^-8 M angiotensin II (AII) and were allowed to contract until a steady state was reached. Tissues were then washed every 15 minutes for 1 hour. This was repeated every hour until the AII response stabilized. A cumulative concentration-response curve to AII (10^-10 to 10^-7 M) was then obtained. At the conclusion of the concentration-response curve, tissues were washed every 2 minutes until baseline tension was reached, then every 15 minutes for 30 minutes. Compounds were added in a volume of 10 μl DMSO and allowed to incubate for 30 minutes before repeating the concentration-response curve to AII. Contractions to AII were expressed as a percent of the maximum contraction obtained in the control curve (the first AII concentration-response curve). EC50 's (concentration that contracted the tissues to 1/2 the control maximum) for each curve were calculated using a 4 parameter logistics model (NonLin, SAS institute).

[3] = pA2 = -log KB, KB = [molar concentration of antagonist]/[(EC50 AII with antagonist/EC50 AII without antagonist)-1], 30 min incubation, AII 10^-10 to 10^-7 M, read-out: Rabbit Aorta (pA2) (converted)

Row | Structure (SMILES) | Adrenal Glomerulosa (% Inhibition of Binding) [1] | Kb [2, 3] | Kb [2]
1 | CCCCCCC(c1cccc(C(=O)NC(c2ccccc2)c2ccccc2)c1)c1nnn[nH]1 (centres unmarked) [Example 49, N-(Diphenylmethyl)-3-[1-(tetrazol-5-yl)-heptyl]benzamide] | 9% | 40.7 µM | –
2 | CCCCCC(C(=O)O)c1ccc(Oc2ccccc2C(=O)O)cc1 (stereo not drawn) [Example 55, α-Pentyl-4-(2-carboxyphenoxy)phenylacetic acid] | 13% | 1.26 µM | –
3 | CCCCCCC(C(=O)O)c1ccc(C(=O)c2ccccc2C(=O)O)cc1 (stereo not drawn) [Example 56, α-Hexyl-4-(2-carboxybenzoyl)benzeneacetic acid] | 75% | 1.05 µM | –
4 | CCCCCCC(C(=O)O)n1cnc(C(=O)NC(c2ccccc2)c2ccccc2)c1.Cl (stereo not drawn) [Example 58, 4-{[(Diphenylmethyl)amino]carbonyl}-α-hexyl-1H-imidazole-1-aceticacid hydrochloride] | 69% | 4.27 µM | –
5 | CCCCCCC(C(=O)O)n1cnc(NC(=O)C2(O)c3ccccc3-c3ccccc32)c1 (stereo not drawn) [Example 59, α-Hexyl-4-[(9-hydroxy-9H-fluoren-9-ylcarbonyl)-amino]-1H-imidazole-1-acetic acid] | 67% | – | 3.09 µM
6 | CCCCCCC(C(=O)O)n1cnc(NC(=O)c2c(O)ccc3ccccc23)c1 (stereo not drawn) [Example 77, α-Hexyl-4-{[(2-hydroxy-1-naphthalenyl)-carbonyl]amino}imidazole-1-acetic acid] | 36% | 5.5 µM | –
7 | CCCCCCC(C(=O)O)n1cnc(NC(=O)c2cccc(O)c2)c1 (stereo not drawn) [Example 78, α-Hexyl-4-[(3-hydroxybenzoyl)amino]-1H-imidazole-1-acetic acid hemihydrate] | 21% | 7.94 µM | –
8 | CCCCCCC(C(=O)O)n1cnc(NC(=O)c2ccc(O)c(O)c2)c1 (stereo not drawn) [Example 79, α-Hexyl-4-[(3,4-dihydroxybenzoyl)amino]-1H-imidazole-1-acetic acid (1.75 hydrate)] | 18% | 11 µM | –
9 | CCCCCCC(C(=O)O)n1cnc(C(=O)Nc2ccccc2CO)c1.Cl (stereo not drawn) [Example 83, α-Hexyl-4-({[2-(hydroxymethyl)phenyl]-amino}carbonyl)-1H-imidazole-1-acetic acid hydrochloride] | 53% | 3.89 µM | –
10 | CCCCC(C(=O)O)n1cnc(C(=O)Nc2ccccc2O)c1.Cl (stereo not drawn) [Example 89, α-Butyl-4-{[(2-hydroxyphenyl)amino]-carbonyl}-1H-imidazole-1-acetic acid hydrochloride] | 54% | 38.9 µM | –

More lines, main results first:

Row | Adrenal Glomerulosa (% Inhibition of Binding) [1] | Kb [2, 3] | Structure (SMILES) | Kb [2]
11 | 61% | 12 µM | CCCCCCC(c1nnn[nH]1)n1cnc(C(=O)NC(c2ccccc2)c2ccccc2)c1 (centres unmarked) [Example 48, 1-[1-(Tetrazol-5-yl)heptyl]-N-(diphenylmethyl)-1H-imidazole-4-carboxamide] | –
12 | 42% | 0.851 µM | CCCCCCC(c1nn[nH]n1)n1cnc(NC(=O)c2ccccc2C(=O)O)c1 (centres unmarked) [Example 50, 2-[({1-[1-(Tetrazol-5-yl)heptyl]-1H-imidazol-4-yl}amino)carbonyl]benzoic acid hemihydrate] | –
13 | 80% | 2.69 µM | CCCCCCC(C(=O)O)n1cnc(NC(=O)C(c2ccccc2)c2ccccc2)c1.Cl (stereo not drawn) [Example 51, α-Hexyl-4-[(diphenylacetyl)amino]-1H-imidazole-1-acetic acid hydrochloride] | –
14 | 44% | 8.32 µM | CCCCCCC(C(=O)O)n1cnc(C(=O)NC(c2ccccc2)c2ccccc2)n1.Cl (stereo not drawn) [Example 52, α-Hexyl-3-{[(diphenylmethyl)amino]carbonyl}-1H-1,2,4-triazole-1-acetic acid hydrochloride] | –
15 | 42% | 6.03 µM | CCCCCCC(C(=O)O)n1ccc(C(=O)NC(c2ccccc2)c2ccccc2)c1 (stereo not drawn) [Example 53, 3-{[(Diphenylmethyl)amino]carbonyl}-α-hexyl-1H-pyrrole-1-acetic acid] | –
16 | 40% | 13.8 µM | CCCCCCC(C(=O)O)n1cc(C(=O)NC(c2ccccc2)c2ccccc2)cn1 (stereo not drawn) [Example 54, 4-{[(Diphenylmethyl)amino]carbonyl}-α-hexyl-1H-pyrazole-1-acetic acid] | –
17 | 77% | 2.63 µM | CCCCCCC(C(=O)O)n1cnc(C(=O)NC2CCc3ccccc32)c1.Cl (stereo not drawn) [Example 57, 4-{[(2,3-Dihydro-1H-inden-1-yl)amino]-carbonyl}-α-hexyl-1H-imidazole-1-acetic acid hydrochloride] | –
18 | 15% | 8.32 µM | CCCCCC(CO)n1cnc(NC(=O)c2ccccc2C(=O)O)c1 (centres unmarked) [Example 60, 2-[({1-[1-(Hydroxymethyl)hexyl]-1H-imidazol-4-yl}amino)carbonyl]benzoic acid] | –
19 | 35% | 1.26 µM | CCCCCCC(C(=O)O)n1cnc(NC(=O)c2ccccc2O)c1 (stereo not drawn) [Example 76, α-Hexyl-4-[(2-hydroxybenzoyl)amino]-1H-imidazole-1-acetic acid] | –
20 | 77% | 2.29 µM | CCCCCCC(C(=O)O)n1cnc(C(=O)Nc2ccccc2CCCCO)c1.Cl (stereo not drawn) [Example 84, α-Hexyl-4-({[2-(4-hydroxybutyl)phenyl]-amino}carbonyl)-1H-imidazole-1-acetic acid hydrochloride] | –
21 | 0% | 15.8 µM | CCCCCCC(C(=O)O)n1cnc(C(=O)Nc2cccc(CO)c2)c1.Cl (stereo not drawn) [Example 85, α-Hexyl-4-({[3-(hydroxymethyl)phenyl]-amino}carbonyl)-1H-imidazole-1-acetic acid hydrochloride] | –
22 | 57% | 3.24 µM | CCCCCCC(C(=O)O)n1cnc(C(=O)Nc2ccccc2CCO)c1.Cl (stereo not drawn) [Example 86, α-Hexyl-4-({[2-(2-hydroxyethyl)phenyl]-amino}carbonyl)-1H-imidazole-1-acetic acid hydrochloride] | –
23 | 7% | 23.4 µM | CCCCCCC(C(=O)O)n1cnc(C(=O)Nc2ccc(CCO)cc2)c1.Cl (stereo not drawn) [Example 87, α-Hexyl-4-({[4-(2-hydroxyethyl)phenyl]-amino}carbonyl)-1H-imidazole-1-acetic acid hydrochloride] | –
24 | 58% | 1.66 µM | CCCCCCC(C(=O)O)c1ccc(Cc2ccccc2C(=O)O)cc1 (stereo not drawn) [Example 94, 4-[(2-Carboxyphenyl)methyl]-α-hexyl-benzeneacetic acid] | –
25 | 59% | 0.372 µM | CCCCCCC(C(=O)O)n1cnc(NC(=O)c2cccc(N)c2C(=O)O)c1 (stereo not drawn) [Example 96, α-Hexyl-4-[(3-amino-2-carboxybenzoyl)amino]-1H-imidazole-1-aceticacid] | –
